{"source": "patent US11965100B2", "about": "“Aggregation-induced emission luminogens useful for cancer cell discrimination and monitoring” (The Hong Kong University of Science and Technology, priority 2020, dated 2024)", "key": {"A549 cells [1]": {"system": "A549 cells", "experiment": "Cytotoxicity by standard MTT assay", "assay_type": "cell-based, human", "conditions": "summary statement", "description": "(§1) FIG. 22 (A) Two-photon microscopy images of live HeLa cells stained with 2 μM IVP-02 for 30 min. λex=800 nm, λem=495-540 nm. Scale bar=20 μm. (B) Viability of A549 cells after incubation with IVP-02, 04, 06, 22, 42, and 62 at different concentrations for 24 h.\nThe potential long-term cytotoxicity of bioprobes should be carefully considered for imaging in live cells. Then we studied the cytotoxicity of these IVP molecules to live A549 cells by standard MTT assay. […] While the incubation concentration is 10 μM, the cell viability was between 60% and 80%, showing certain cytotoxicity. Nonetheless, all cell imaging experiments in this work were conducted at low concentration 2 μM, which is reasonable and acceptable."}, "[2]": {"system": "cancer cells (A549 and HeLa) and normal cells (COS7 and HLF)", "experiment": "CLSM imaging of separately stained cancer and normal cells", "assay_type": "cell-based", "conditions": "2 μM, 30 min, same staining and imaging conditions", "description": "FIG. 4 CLSM images of live cancer cells (A549 and HeLa) and normal cells (COS7 and HLF) stained with 2 μM IVP-02 for 30 min, respectively. λex=488 nm, λem=500-650 nm. Scale bar=20 μm.\nThe bioimaging properties of IVP-02 in live cells were investigated by confocal laser scanning microscopy (CLSM). Cancer cells (A549 and HeLa) and normal cells (COS7 and HLF) were stained with IVP-02, respectively. […] So IVP-02 holds the high potential to differentiate cancer and normal cells. To verify this speculation, cancer and normal cells were co-cultured and stained with IVP-02. […] To precisely confirm the selectivity of IVP-02 to cancer cells, cancer cells A549 and normal cells HLF (A549 and HLF are both human lung cells) were seeded on different cover glasses, respectively. Then the two cover glasses were put in the same dish and stained with IVP-02 at the same time."}, "[3]": {"system": "A549 co-cultured with COS7 cells, HeLa co-cultured with COS7 cells", "experiment": "CCCP treatment of cancer cells co-cultured with normal cells", "assay_type": "cell-based", "conditions": "A549 or HeLa with COS7, 2 μM, 20 μM CCCP added then removed", "description": "(§2) FIG. 15 Live A549 cells (A) and live A549 co-cultured with COS 7 cells, live HeLa co-cultured with COS7 cells (B) were pre-stained with 2 μM IVP-02 for 30 min, and treated with 20 μM CCCP for 5 min. Then CCCP was removed away and fresh culture medium was added for another 5 min. λex=488 nm, λem=500-650 nm. Scale bar=20 μm.\nTo test whether IVP-02 could selectively stain cancer cells and monitor their viability, cancer cells and normal cells were co-cultured and stained with IVP-02. […] After CCCP was removed, the fluorescence in nucleolus disappeared, while the fluorescence in mitochondria recovered gradually. […] The same experiments were also carried out in HeLa cells co-cultured with COS7 cells shown in FIG. 15B and similar phenomena were observed."}, "HeLa cells [4]": {"system": "HeLa cells", "experiment": "Mitochondrion-nucleolus migration on CCCP treatment, HeLa cells", "assay_type": "cell-based", "conditions": "pre-stained 2 μM 30 min, 20 μM CCCP 5 min", "description": "FIG. 16 Live HeLa cells were pre-stained with 2 μM IVP-02 for 30 min, and treated with 20 μM CCCP for 5 min. Then CCCP was removed away and fresh culture medium was added for another 5 min. λex=488 nm, λem=500-650 nm. Scale bar=20 μm.\nFIG. 19 Live HeLa cells were pre-stained with 2 μM IVP-04, 22, 42, 06, 62 for 30 min, and treated with 20 μM CCCP for 5 min. Then CCCP was removed away and fresh culture medium was added for another 5 min, respectively. λex=488 nm, λem=500-650 nm. Scale bar=20 μm.\n(§3) Monitoring cell viability is a highly valuable task for the fundamental researches in biology, pathology, and medicine. Then we investigated whether IVP-02 could monitor cell viability. Δψm is a very important indicator to characterize cell viability. With the loss of cell viability, Δψm would decrease, while with the recovery of cell viability, Δψm would also recover to the normal level. […] Carbonyl cyanide m-chlorophenyl hydrazone (CCCP) is a type of protonophore and can cause rapid acidification of mitochondria by collapsing Δψm. Cancer cells A549 were pre-stained with IVP-02 for 30 min. In FIG. 15A, in the beginning, IVP-02 stained mitochondria clearly. […] Hydrogen peroxide (H2O2) can inhibit the oxidation respiratory chain that would cause the loss of cell viability. Then live A549 and HeLa cells were pre-stained with IVP-02, and treated with 10 mM H2O2.\n(§4) In addition to IVP-02, we further investigated whether other IVP molecules could monitor the viability of cancer cells through mitochondrion-nucleolus migration was investigated. A549 cells were pre-stained with IVP-04, 22, 42, 06, and 62, respectively, and then CCCP was added."}, "HeLa cells [5]": {"system": "HeLa cells", "experiment": "Two-photon imaging in live cells", "assay_type": "cell-based", "conditions": "2 μM, 30 min, λex 800 nm", "description": "as §1\nGiven the high two-photon absorption cross section values of IVP-02 excited by 800 nm, we performed in vitro two-photon imaging of IVP-02 in live HeLa cells."}, "[6]": {"system": "mitochondria in HeLa and A549 cells", "experiment": "Co-stain with mitochondrial probe MitoTracker Deep Red FM (MTDR)", "assay_type": "cell-based", "conditions": "2 μM dye, 0.2 μM MTDR, HeLa and A549", "description": "FIG. 6 CLSM images of live HeLa and A549 cells stained with 2 μM IVP-02 and 0.2 μM MTDR, respectively. IVP-02: λex=488 nm, λem=500-650 nm; MTDR: λex=640 nm, λem=650-700 nm. Scale bar=20 μm.\nIn the above pictures, filamentous structures in cytoplasm of cancer cells were observed, which were typical morphology of mitochondria. Then co-stain experiments with commercial mitochondrial probe MitoTracker™ Deep Red FM (MTDR) were carried out (FIG. 6).\nIt was speculated that the membrane permeability of the probe was a key factor for its selectivity to cancer cells, since the plasma membrane of cancer cells was reported to be more permeable than normal cells. Consequently, IVP-02 was modified by lengthening the alkyl chain at the pyridine salt side and indole side, respectively, to tune the membrane permeability. The synthetic route to these new IVP molecules is depicted in Scheme 1. Their chemical structures were fully characterized by ^1H NMR, ^13C NMR, and ^19F NMR. Then cancer cells A549 were stained with the five new molecules, respectively. […] The co-stain experiments with MTDR also confirmed their location in mitochondria in A549 cells in FIG. 7C. In addition to A549 cells, the same experiments were also carried in HeLa cells (FIGS. 8 and 9)."}, "A549 cells [7]": {"system": "A549 cells", "experiment": "Mitochondrion-nucleolus migration on CCCP treatment, A549 cells", "assay_type": "cell-based, human", "description": "as §2\nFIG. 18 Live A549 cells were pre-stained with 2 μM IVP-04, 22, 42, 06, 62 for 30 min, and treated with 20 μM CCCP for 5 min. Then CCCP was removed away and fresh culture medium was added for another 5 min, respectively. λex=488 nm, λem=500-650 nm. Scale bar=20 μm.\nas §3, §4"}}, "data": [{"molecule": "CC[n+]1ccc(/C=C/c2c[nH]c3ccccc23)cc1", "note": "[IVP-02]", "values": [{"measurement": "cytotoxicity", "setting": "A549 cells [1]", "value": "low cytotoxicity"}, {"measurement": "fluorescence intensity in normal cells versus cancer cells", "setting": "[2]", "value": "much weaker than that in cancer cells"}, {"measurement": "selective staining and viability monitoring in co-cultured cells", "setting": "[3]", "value": "could selectively stain cancer cells and monitor their viability through mitochondrion-nucleolus migration"}, {"measurement": "nucleolus staining after addition of CCCP", "setting": "HeLa cells [4]", "value": "could stain nucleolus"}, {"measurement": "two-photon fluorescence imaging", "setting": "HeLa cells [5]", "value": "bright two-photon fluorescence"}, {"measurement": "co-localization coefficient with MTDR", "setting": "[6]", "value": "around 0.9"}, {"measurement": "migration back to mitochondria after removal of CCCP", "setting": "A549 cells [7]; A549, CCCP removed, fresh medium 5 min", "value": "migrated back to mitochondria"}, {"measurement": "migration from mitochondria to nucleolus after addition of CCCP", "setting": "A549 cells [7]; A549, pre-stained 2 μM 30 min, 20 μM CCCP 5 min", "value": "released from mitochondria and migrated to nucleolus"}]}]}
